Assay results reported in patent US20050095663A1, “Process for screening fungitoxic compounds” (priority 2002, published 2005).
Read-outs that look alike come from different tables or passages of the source.

How the values were obtained:
[1] = system: Candida albicans (American Type Culture Collection strain 10231); experiment: Control of Candida albicans infection in mice; format: in vivo; details: for % Survival: mortality over 10 days
Method: Compound 1 (6-(4-chlorophenyl)-2-(2′-pentynyl)pyridazinone, described as compound 109 in European Patent Publication No. EP 478 195 A1) in 5% dimethylsulfoxide (DMSO) in saline solution was administered intraperitoneally 1 h before and at 4, 24, 48 and 72 h after intravenous inoculation with Candida albicans (American Type Culture Collection strain 10231). Ten mice were used for each treatment. Mortality was recorded over a period of 10 days.

[2] = system: Saccharomyces cerevisiae (strain X2180-1A); experiment: Effect of fatty acids on fungitoxicity (growth inhibition, absorbance at 700 nm); format: cell-based; details: 22 h
Method: (§1) Fifty ml of YPG culture medium (10 g yeast extract, 20 g peptone, and 20 g glucose per liter of water) in a 250 ml Erlenmeyer flask was inoculated with Saccharomyces cereviae (strain X2180-1A) to give an absorbance at 700 nm of 0.02. This culture was incubated for 18 h at 30° C. with shaking at 225 rpm. The cells were harvested by centrifugation, washed once with SD medium (6.7 g Bacto-yeast nitrogen base and 20 g glucose per liter of water), and suspended in SD medium to give an Absorbance at 700 nm of 0.04. Aliquots (5 ml) of cell suspension were distributed in 20 ml capacity glass vials. Treatments containing compound 1 or cerulenin received 25 μl of a solution of compound in dimethylsulfoxide (DMSO) at 240 ppm or 160 ppm, respectively. Control treatments without compound 1 or cerulenin received 25 ul DMSO. Treatments containing a fatty acid received 25 μl of a 2 mM solution of the fatty acid in a 1% solution of Triton X-100 providing a concentration of 10 μM. Treatments without fatty acid received 25 ul of 1% Triton X-100. All treatments were carried out in duplicate. Vials were incubated for 22 h at 30° C. with shaking at 225 rpm. Growth of the cells was then estimated by diluting the cells in each treatment 3-fold with SD medium and measuring the asorbance at 700 nm. The results in Table 3 show inhibition of growth expressed as a percentage of growth in DMSO controls containing Triton X-100 but lacking Compound 1, cerulenin or fatty acid.

S. cerevisiae [3] = experiment: Growth inhibition of S. cerevisiae by compound 1; format: cell-based; details: Saccharomyces cerevisiae, 18 h
Method: as §1
(§2) S. cerevisiae was grown in SD medium as 5 ml aliquots of cell suspension in 20 ml capacity glass vials as described in example 3 in the absence (controls) and presence of compound 1. Compound 1 was added as 25 μl of solution in DMSO, and controls received 25 ul DMSO alone. After growth for 18 h at 30° C. with shaking at 225 rpm, inhibition of growth by compound 1 was determined as described in example 3, and the fatty acid composition was determined as follows. The cells were centrifuged in 20 ml borosilicate glass culture tubes at 2000 rpm. The supernatant was decanted, and the cells were re-suspended in 10 ml of water and re-centrifuged at 2000 rpm. The supernatant was decanted, and the cells were saponified by heating at 80° C. for 1 hour in 2.5 ml of 10% potassium hydroxide solution in 90% methanol/10% water. The non-saponifiable lipids were removed by extracting the basic solution with 2×3 ml of cyclohexane. The basic solution was then acidified to pH 2 with 6N hydrochloric acid, and the acidic solution was again extracted with 2×3 ml of cyclohexane. These extracts were analyzed directly by capillary gas chromatography using an HP5890 gas chromatograph equipped with a Restek Stabilwax DB capillary column (30m×0.53 mm i.d.×0.25 μm film thickness) and a flame ionization detector. Analyses were run at 225° C. isothermally, and compared to a sample free fatty acid mixture prepared from authentic standards purchased from Sigma.

[4] = target: T1, Rat liver Δ-9 fatty acid desaturase (Rattus norvegicus, UniProt P07308); experiment: Rat liver microsomal Δ-9 fatty acid desaturase assay (14C-palmitoyl-CoA to palmitoleic acid); format: biochemical
T1 construct: The upper gelatinous layer is the microsomal fraction; from tissue; host or cells: liver of Sprague-Dawley rats (starved, then fed a fat-free diet), microsomal fraction
T1 sequence (P07308 1-358): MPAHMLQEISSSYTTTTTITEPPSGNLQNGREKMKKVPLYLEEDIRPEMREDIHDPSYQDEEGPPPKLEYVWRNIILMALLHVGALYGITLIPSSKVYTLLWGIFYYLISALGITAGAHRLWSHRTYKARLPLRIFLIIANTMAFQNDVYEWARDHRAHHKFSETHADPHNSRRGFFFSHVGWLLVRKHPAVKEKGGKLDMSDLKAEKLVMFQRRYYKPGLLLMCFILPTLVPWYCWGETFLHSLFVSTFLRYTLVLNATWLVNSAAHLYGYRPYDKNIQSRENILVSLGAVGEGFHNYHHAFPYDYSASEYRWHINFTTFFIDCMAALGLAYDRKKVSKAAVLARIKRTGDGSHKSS
Method: The following method was used to prepare the microsomal Δ-9 fatty acid desaturase from rat liver. Sprague-Dawley rats weighing between 120 and 180 g were fed with Purina laboratory chow, starved for 48 h, then fed with a “Fat-Free” test diet (Nutritional Biochemical Corporation) for 20 h. Livers were removed and placed in cold […] Tris-acetate buffer, pH 8.1, containing 0.25 M sucrose and 1 mM EDTA. The tissue was washed twice with 10 volumes of cold buffer, blotted dry and weighed. The tissue was minced and homogenized in 5 ml of buffer per gram of tissue using a glass homogenizer with a loose fitting Teflon pestle. […]
Delta-9 Fatty acid desaturase assays were performed by measuring the desaturation of ^14C-palmitoyl-CoA to palmitoleic acid using 0.5 ml reaction mixtures containing 0.1 M potassium phosphate buffer, pH 7.2, 1 mM NADH and 26 μM ^14C-palmitoyl-CoA (0.028 μCi per assay) in 13×100 mm glass culture tubes. […] The upper cyclohexane layer was removed and 100 μI analyzed by HPLC on a Supelcosil LC-18 column (25×4.6 mm) with methanol-water-phosphoric acid (90:9.9:0.1, by volume) as the mobile phase at a flow rate of 1 ml/min. A Packard A120 RAM detector was used to determine the amounts of radioactivity in the palmitic and palmitoleic acid fractions. […] The concentration of compound 1 which inhibited production of palmitoleic acid by 50% was determined from dose-response curves.

S. cerevisiae [5] = experiment: Fatty acid composition of S. cerevisiae after treatment (capillary gas chromatography); format: cell-based, Saccharomyces cerevisiae; details: 18 h
Method: as §2

[6] = target: T2, Yeast Δ-9 fatty acid desaturase (Saccharomyces cerevisiae, UniProt P21147); experiment: Yeast microsomal Δ-9 fatty acid desaturase assay (14C-palmitoyl-CoA to palmitoleic acid); format: biochemical
T2 construct: the resulting microsomal pellet suspended in 10 ml of ice-cold 0.1 M potassium phosphate buffer; endogenous in cells; host or cells: Saccharomyces cerevisiae ATCC strain 12341, microsomal fraction
Method: The following method was used to prepare the microsomal Δ-9 fatty acid desaturase from yeast. Two 250 ml flasks containing 100 ml each of glucose-yeast extract medium (0.4% yeast extract and 2% glucose) were inoculated with Saccharomyces cerevisiae strain 12341 obtained from the American Type Culture Collection, and grown for 48 h at 30° C. with shaking at 250 rpm. The cells were used to inoculate a 4 liter flask containing 3.6 liters of medium. The cells were grown at 30° C. with gentle shaking at 90 rpm for 24 h. […]
Delta-9 Fatty acid desaturase assays were performed by measuring the desaturation of ^14C-palmitoyl-CoA to palmitoleic acid using 0.5 ml reaction mixtures containing 0.1 M potassium phosphate buffer, pH 7.2, 1 mM NADH and 26 μM ^14C-palmitoyl-CoA (0.028 μCi per assay) in 13×100 mm glass culture tubes. […] The upper cyclohexane layer was removed and 100 μI analyzed by HPLC on a Supelcosil LC-18 column (25×4.6 mm) with methanol-water-phosphoric acid (90:9.9:0.1, by volume) as the mobile phase at a flow rate of 1 ml/min. A Packard A120 RAM detector was used to determine the amounts of radioactivity in the palmitic and palmitoleic acid fractions. The percent inhibition of desaturation was determined by comparing the production of palmitoleic acid in assays containing compound 1 with production in assays containing DMSO alone. […]

[7] = microsomal preparation, 26 μM 14C-palmitoyl-CoA, 30° C., 5 min

T2 sequence (P21147 whole entry, stated change not applied): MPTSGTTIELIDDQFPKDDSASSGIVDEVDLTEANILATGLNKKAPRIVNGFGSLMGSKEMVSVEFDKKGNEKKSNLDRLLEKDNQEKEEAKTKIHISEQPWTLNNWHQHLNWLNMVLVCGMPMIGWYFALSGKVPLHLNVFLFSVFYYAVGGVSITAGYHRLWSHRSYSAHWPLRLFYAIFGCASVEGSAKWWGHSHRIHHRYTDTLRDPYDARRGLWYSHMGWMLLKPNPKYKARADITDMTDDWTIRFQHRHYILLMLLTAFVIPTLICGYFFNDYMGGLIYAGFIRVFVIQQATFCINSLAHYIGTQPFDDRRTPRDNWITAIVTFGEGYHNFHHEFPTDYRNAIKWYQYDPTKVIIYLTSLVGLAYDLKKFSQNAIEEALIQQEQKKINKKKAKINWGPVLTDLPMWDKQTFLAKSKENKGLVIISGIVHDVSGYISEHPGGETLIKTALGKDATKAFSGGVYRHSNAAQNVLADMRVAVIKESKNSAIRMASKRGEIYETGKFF

C[C@@H]1[C@H](O)[C@@H](C)/C=C/C=C/C=C/C=C/C=C/C=C/C=C/[C@H](O[C@@H]2O[C@H](C)[C@@H](O)[C@H](N)[C@@H]2O)C[C@@H]2O[C@](O)(C[C@@H](O)C[C@@H](O)[C@H](O)CC[C@@H](O)C[C@@H](O)CC(=O)O[C@H]1C)C[C@H](O)[C@H]2C(=O)O [Amphotericin B, reference compound]
% Survival ([1]; 10 mg/kg): 100%

C/C=C/C/C=C/CCC(=O)[C@H]1O[C@H]1C(N)=O [Cerulenin, cerulenin, reference compound]
inhibition at 0.8 ppm ([2]; read-out: % Inhibition of growth, 0.8 ppm, no fatty acid, 22 h): 35.6%
inhibition at 0.8 ppm ([2]; read-out: % Inhibition of growth, 0.8 ppm, oleic acid 10 μM, 22 h): 3.3%
inhibition at 0.8 ppm ([2]; read-out: % Inhibition of growth, 0.8 ppm, palmitic acid 10 μM, 22 h): 15.2%
inhibition at 0.8 ppm ([2]; read-out: % Inhibition of growth, 0.8 ppm, palmitoleic acid 10 μM, 22 h): 4.5%
inhibition at 0.8 ppm ([2]; read-out: % Inhibition of growth, 0.8 ppm, pentadecanoic acid 10 μM, 22 h): 20.3%

CCC#CCn1nc(-c2ccc(Cl)cc2)ccc1=O [Compound 1, 6-(4-chlorophenyl)-2-(2′-pentynyl)pyridazinone]
inhibition at 0.0625 µg/mL (S. cerevisiae [3]; 0.0625 μg/ml): 10.1%
inhibition at 0.125 µg/mL (S. cerevisiae [3]; 0.125 μg/ml): 14.3%
inhibition at 0.25 µg/mL (S. cerevisiae [3]; 0.25 μg/ml): 19.1%
inhibition at 0.5 µg/mL (S. cerevisiae [3]; 0.5 μg/ml): 38.7%
inhibition at 1 µg/mL (S. cerevisiae [3]; 1 μg/ml): 54.4%
inhibition at 2 µg/mL (S. cerevisiae [3]; 2 μg/ml): 66.4%
Inhibition of Candida albicans infection in mice (in words) [1]: effective inhibitor
% Survival ([1]; 10 mg/kg): 20%
% Survival ([1]; 30 mg/kg intraperitoneally 1 h before and 4, 24, 48, 72 h after i.v. inoculation): 40%
% Survival ([1]; 100 mg/kg intraperitoneally 1 h before and 4, 24, 48, 72 h after i.v. inoculation): 50%
Inhibition of mammalian Δ-9 fatty acid desaturase (in words) [4]: does not inhibit
Rat liver desaturase EC50 [4, 7]: >100 ppm
oleic acid per milligram dry weight of cells (S. cerevisiae [5]; 0.0625 μg/ml): 8.5 µg/mg
palmitic acid per milligram dry weight of cells (S. cerevisiae [5]; 0.0625 μg/ml): 7.1 µg/mg
palmitoleic acid per milligram dry weight of cells (S. cerevisiae [5]; 0.0625 μg/ml): 14.2 µg/mg
stearic acid per milligram dry weight of cells (S. cerevisiae [5]; 0.0625 μg/ml): 2.8 µg/mg
oleic acid per milligram dry weight of cells (S. cerevisiae [5]; 0.125 μg/ml): 4.3 µg/mg
palmitic acid per milligram dry weight of cells (S. cerevisiae [5]; 0.125 μg/ml): 6.5 µg/mg
palmitoleic acid per milligram dry weight of cells (S. cerevisiae [5]; 0.125 μg/ml): 14 µg/mg
stearic acid per milligram dry weight of cells (S. cerevisiae [5]; 0.125 μg/ml): 3.1 µg/mg
oleic acid per milligram dry weight of cells (S. cerevisiae [5]; 0.25 μg/ml): 2.7 µg/mg
palmitic acid per milligram dry weight of cells (S. cerevisiae [5]; 0.25 μg/ml): 6 µg/mg
palmitoleic acid per milligram dry weight of cells (S. cerevisiae [5]; 0.25 μg/ml): 3 µg/mg
stearic acid per milligram dry weight of cells (S. cerevisiae [5]; 0.25 μg/ml): 3 µg/mg
oleic acid per milligram dry weight of cells (S. cerevisiae [5]; 0.5 μg/ml): 1.1 µg/mg
palmitic acid per milligram dry weight of cells (S. cerevisiae [5]; 0.5 μg/ml): 5.2 µg/mg
palmitoleic acid per milligram dry weight of cells (S. cerevisiae [5]; 0.5 μg/ml): 1 µg/mg
stearic acid per milligram dry weight of cells (S. cerevisiae [5]; 0.5 μg/ml): 4.7 µg/mg
oleic acid per milligram dry weight of cells (S. cerevisiae [5]; 1 μg/ml): 1.2 µg/mg
palmitic acid per milligram dry weight of cells (S. cerevisiae [5]; 1 μg/ml): 6.7 µg/mg
palmitoleic acid per milligram dry weight of cells (S. cerevisiae [5]; 1 μg/ml): 0 µg/mg
stearic acid per milligram dry weight of cells (S. cerevisiae [5]; 1 μg/ml): 5 µg/mg
oleic acid per milligram dry weight of cells (S. cerevisiae [5]; 2 μg/ml): 0.5 µg/mg
palmitic acid per milligram dry weight of cells (S. cerevisiae [5]; 2 μg/ml): 5 µg/mg
palmitoleic acid per milligram dry weight of cells (S. cerevisiae [5]; 2 μg/ml): 0 µg/mg
stearic acid per milligram dry weight of cells (S. cerevisiae [5]; 2 μg/ml): 4.2 µg/mg
inhibition at 1.2 ppm ([2]; no fatty acid): 76.9%
inhibition at 1.2 ppm ([2]; oleic acid 10 μM): 18.7%
inhibition at 1.2 ppm ([2]; palmitic acid 10 μM): 95.5%
inhibition at 1.2 ppm ([2]; palmitoleic acid 10 μM): 21.8%
inhibition at 1.2 ppm ([2]; pentadecanoic acid 10 μM): 96.7%
Inhibition of fungal Δ-9 fatty acid desaturase (in words) [6]: potent inhibitor
Yeast desaturase EC50 [6, 7]: 0.055 ppm
